According to EP0791603A2, “Pure somatostatin antagonist and methods of use thereof” (American Cyanamid Company, priority 1996, dated 1997):
Positions of bridges follow the written chain, without caps; N, C: chain ends. Non-standard residues stand in square brackets, D forms with d. Residues, ends and D or L forms follow the SMILES beside them. Phe(4-NO2) = N[C@@H](Cc1ccc([N+](=O)[O-])cc1)C(=O)O; dPhe(4-NO2) = N[C@H](Cc1ccc([N+](=O)[O-])cc1)C(=O)O; 2Nal = N[C@@H](Cc1ccc2ccccc2c1)C(=O)O; NMeA = CN[C@@H](C)C(=O)O

What was measured:
SSTR2 [1] = assay: Cyclic AMP accumulation in intact cells (forskalin stimulated, adrenal binding protein method); format: cell-based; conditions: % intrinsic activity
Description: Cyclic AMP accumulation assays are used to determine the functional coupling of somatostatin receptors to effectors. All five cloned somatostatin receptors inhibit cyclic AMP accumulation and adenylyl cyclone activity ^1 ^,2,3,4,5. This evaluation measures cyclic AMP accumulation from intact cells using the adrenal binding protein method. Signal transduction by somatostatin is mediated by lowering intracellular c-AMP levels. This functional assay measures the ability of the test compound to inhibit the effect of somatostatin on forskalin stimulated c-AMP levels. ^1 K. Yasuda, S. Rens-Damiano, C. D. Breder, S. F. Law, C. B. Saper, T. Reisine and G. I. Bell, J. Biol. Chem. 267,20422-20428 (1992). ^2 J. F. Bruno, Y. Xu, J. Song and M. Berelowitz, Proc. Natl. Acad. Sci. USA 89, 11151-11155 (1992). ^3 A. M. O'Carrol, S. J. Lolait, M. König and L. Mahan, Mol. Pharmacol. 42, 939-946 (1992). ^4 J. R. Hadcock, J. Strnad and C. M. Eppler, Mol. Pharmacol. 45, 410-416 (1994). ^5 J. Strnad, C. M. Eppler, M. Corbett and J. R. Hadcock, Biochem. Biophys. Res. Commun.191, 968-976 (1993).
Bovine adrenal gland extracts are prepared according to the method of Brown et al^6 with minor modifications. […] Two-four adrenals are thawed and the cortices are separated on ice: chopped into small pieces; resuspended in 1.5 volumes of buffer containing 0.25 M sucrose, 50 mM Tris-HCl pH 7.4, 25 mM KCl, 5 mM MgCl2 and protease inhibitors (5 µg/ml leupeptin, 5µg/ml aprotinin, 100 µg/ml bacitracin, and 100 µg/ml benzamidine; homogenized with a Polytron and centrifuged for 5 minutes. The resultant supernatant is saved and centrifuged for 15 minutes. This resultant supernatant is saved and stored as 1 mL aliquots at -80°C. Four adrenals glands are usually sufficient to prepare 30-50 one mL aliquots. Each preparation is tested with standards at different dilutions before use in the following experiment. ^6 B. L. Brown, J. D. M. Albano, R. P. Ekins and A. M. Sgherzi, Biochem. J. 121, 561-562 (1971).
Somatostatin-mediated inhibition of cyclic AMP accumulation is measured in intact cells co-incubated with the diterpene forskalin (5 µM) which activates adenylyl cyclase directly and stimulates cyclic AMP accumulation in cells. The medium is aspirated from two 100 mm plates of cells, a 5 mL portion of phosphate-buffered saline containing 2 mM EDTA is added to each plate. The cells are washed off the plate, without scraping. The cells are then pelleted and resuspended in Kreb's Ringers Phosphate (KRP) containing 2 mM CaCl2 (added fresh), washed once and resuspended in 2 ml of KRP with a CaCl2 containing 100 µM IBMX. The cells are counted and the concentration of cells is adjusted to 50,000/70 µl and incubated 15 minutes at room temperature before starting the assay. […]

SSTR2 [2] = molecular target: SSTR2 (Rattus norvegicus, UniProt P30680); assay: Competitive binding, displacement of [125I]Tyr11 S-14; parameters: expressed in transfected cells; conditions: [125I]Tyr11 S-14 250 pM, room temperature 2 hours
Chain of SSTR2 (Rattus norvegicus, UniProt P30680) (P30680 whole entry): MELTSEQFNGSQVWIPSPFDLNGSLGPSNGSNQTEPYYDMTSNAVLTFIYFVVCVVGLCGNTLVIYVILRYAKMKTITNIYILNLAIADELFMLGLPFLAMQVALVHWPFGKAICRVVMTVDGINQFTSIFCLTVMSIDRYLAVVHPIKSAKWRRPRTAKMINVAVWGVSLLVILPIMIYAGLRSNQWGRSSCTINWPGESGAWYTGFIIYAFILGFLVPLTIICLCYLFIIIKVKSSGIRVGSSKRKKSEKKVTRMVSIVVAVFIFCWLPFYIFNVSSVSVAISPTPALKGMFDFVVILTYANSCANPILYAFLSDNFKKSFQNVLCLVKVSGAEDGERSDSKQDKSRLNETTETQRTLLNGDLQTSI
Description: In this evaluation the concentration of test compound required to displace 50% of somatostatin, SRIF, from the SRIF receptor subtypes expressed in mammalian cells is measured, i.e., the concentration required to inhibit 50% of [^125I] Tyr^11 S-14 (Amersham) (IC50) from binding to the SRIF receptor subtypes.
Radiolabeled SRIF is mixed with pituitary cells, the test compound is added, the mixture is incubated and the radioactivity is measured as compared to control. Reduced radioactivity indicates successful competitive binding of the test compound to the pituitary cell receptor. The concentration of the test compound in nanomolar units required to displace 50% of SRIF from the pituitary cell receptor is calculated and reported in Table II as the IC50 value. Also calculated is the inhibitory constant, Ki.
Tyr^11S-14 (150,000 cpm at 2000 Ci/mmole, 250 pM final concentration). The binding reaction is initiated by adding 2-60µg of membrane protein in a 170 µL volume. Final reaction volume is 200 µl/well. All incubations are carried out at room temperature for 2 hours. Free radioligand is separated from bound ligand by rapid filtration through a glass fiber filter (IH-201-HA) using an Inotech cell harvester. The filter is then washed several times with cold (4°C) binding buffer lacking BSA and protease inhibitors prior to counting in an LKB gamma master counter (78% efficiency). Whatman GFC filters presoaked in 0.3% polyethylenimine (to decrease background) are used.
The IC50 values and Ki values are calculated using the well-known methods described by Y. Cheng and W. H. Prusoff, Biochem. Pharmacol. 22, 3099-3108 (1973), incorporated herein by reference thereto.

Row | Structure (SMILES) | % IA (SSTR2 [1]) [%] | IC50 (SSTR2 [2]; membrane protein, read-out: SSTR2 Binding Affinity IC50) [nM] | Ki (SSTR2 [2]; calculated by Cheng and Prusoff, read-out: SSTR2 Binding Affinity Ki) [nM]
1 | CC(C)[C@@H]1NC(=O)[C@H](CCCCN)NC(=O)[C@@H](Cc2c[nH]c3ccccc23)NC(=O)[C@H](Cc2ccc(O)cc2)NC(=O)[C@H](NC(=O)[C@H](N)Cc2ccc([N+](=O)[O-])cc2)CSSC[C@@H](C(=O)N[C@@H](Cc2ccc(O)cc2)C(N)=O)NC1=O (H-[dPhe(4-NO2)][dC]Y[dW]KVCY-NH2; disulfide 2-7) | 42 | – | –
2 | C[C@@H](O)[C@@H]1NC(=O)[C@H](CCCCN)NC(=O)[C@@H](Cc2c[nH]c3ccccc23)NC(=O)[C@H](Cc2ccc(O)cc2)NC(=O)[C@H](NC(=O)[C@@H](N)Cc2ccc(I)cc2)CSSC[C@@H](C(=O)N[C@@H](Cc2ccc(O)cc2)C(N)=O)NC1=O | -12 | – | –
3 | CC(C)[C@@H]1NC(=O)[C@H](CCCCN)NC(=O)[C@@H](Cc2c[nH]c3ccccc23)NC(=O)[C@H](Cc2ccc(O)cc2)NC(=O)[C@H](NC(=O)[C@@H](N)Cc2ccc([N+](=O)[O-])cc2)CSSC[C@@H](C(=O)N(C)[C@@H](C)C(N)=O)NC1=O [H-p-NO2Phe-D-Cys-Tyr-D-Trp-Lys-Val-Cys-N(CH3)Ala-NH2] (H-[Phe(4-NO2)][dC]Y[dW]KVC[NMeA]-NH2; disulfide 2-7) | 29 | 55 | 24.4
4 | NCCCC[C@@H]1NC(=O)[C@@H](Cc2c[nH]c3ccccc23)NC(=O)[C@H](Cc2ccc(O)cc2)NC(=O)[C@H](NC(=O)[C@@H](N)Cc2ccc([N+](=O)[O-])cc2)CSSC[C@@H](C(=O)N[C@@H](Cc2ccc3ccccc3c2)C(N)=O)NC(=O)[C@H](CO)NC1=O (H-[Phe(4-NO2)][dC]Y[dW]KSC[2Nal]-NH2; disulfide 2-7) | 7 | – | –
